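The compound was tested at five concentrations on cells cultured in 96-well plates, with a 48-hour exposure period. Abbreviation: GI50, concentration required for 50% inhibition of growth. TGI marks complete inhibition of growth.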

Some test systems named below: COLO 205 colon; HCT-15 colon; HL-60(TB) leukemia; LOX IMVI melanoma; OVCAR-8 ovarian; SF-268 CNS; SF-539 CNS; CAKI-1 renal; OVCAR-3 ovarian; SF-295 CNS.
Holding throughout (assay): NCI-60 cell line screen, 48 h

For the compound `O=C1CC[C@@H]2[C@H]3CCC(=O)c4c3c(c3cccc(O)c3c4O)O[C@@]23C(=O)c2cccc(O)c2C(O)=C13`, the GI50 in the experiment with COLO 205 colon, in the experiment on HCT-15 colon, with HL-60(TB) leukemia, in the experiment on LOX IMVI melanoma, in the experiment on OVCAR-8 ovarian and in the experiment with SF-268 CNS was over 100 µM in each case. The GI50 in the experiment on SF-539 CNS was over 100 µM. In addition, the TGI in the experiment on COLO 205 colon, with HCT-15 colon, with HL-60(TB) leukemia, with LOX IMVI melanoma, with OVCAR-8 ovarian and with SF-268 CNS was over 100 µM in each case. This compound also displayed a TGI with SF-539 CNS of over 100 µM.

As to `CC[C@@]1(O)C(=O)OCc2c1cc1n(c2=O)Cc2cc3c(N)c(OC)ccc3nc2-1`, the GI50 in the experiment with CAKI-1 renal was 0.0251 µM; in the experiment with COLO 205 colon, 0.263 µM; in the experiment with HCT-15 colon, 0.283 µM; with HL-60(TB) leukemia it was 0.0266 µM; in the experiment with LOX IMVI melanoma, 0.0216 µM; with OVCAR-3 ovarian, 0.328 µM. In addition, the GI50 in the experiment with SF-268 CNS was 0.0152 µM; in the experiment on SF-295 CNS, 0.0267 µM; with SF-539 CNS, 0.0139 µM. Further, the TGI came to 0.796 µM in the experiment on CAKI-1 renal; 2.69 µM with COLO 205 colon; 3.52 µM with HCT-15 colon; 0.187 µM in the experiment on HL-60(TB) leukemia; 0.151 µM with LOX IMVI melanoma; 1.65 µM in the experiment with OVCAR-3 ovarian. Besides, the results for the TGI in the experiment with SF-295 CNS and in the experiment on SF-539 CNS were 0.41 µM and 0.0932 µM, respectively.

Turning to `Cc1ccc(C)c(NC(=O)C(=O)C(C2C(C)CC(=O)C2CC(=O)O)[N+](=O)[O-])c1` (centres undefined), the TGI with CAKI-1 renal, with COLO 205 colon, in the experiment with HCT-15 colon, in the experiment on HL-60(TB) leukemia, in the experiment with LOX IMVI melanoma and in the experiment on OVCAR-3 ovarian was over 100 µM in each case. In addition, the TGI in the experiment on SF-268 CNS, in the experiment with SF-295 CNS and in the experiment with SF-539 CNS was over 100 µM throughout.

Turning to `O=S(=O)([O-])c1ccc(C=Nc2ccccc2)c([O-])c1.O=S(=O)([O-])c1ccc(C=Nc2ccccc2)c([O-])c1.[Co+2]`, the GI50 is 70.5 µM in the experiment on COLO 205 colon; 45.5 µM in the experiment with HCT-15 colon; 2.7 µM in the experiment with HL-60(TB) leukemia; 3.01 µM in the experiment on LOX IMVI melanoma; over 100 µM in the experiment on OVCAR-3 ovarian; 50.6 µM in the experiment with OVCAR-8 ovarian. The results for the GI50 with SF-268 CNS, in the experiment on SF-295 CNS and in the experiment on SF-539 CNS were 5.18 µM, over 100 µM and 32.6 µM, respectively. Further, the TGI with COLO 205 colon, with HCT-15 colon, in the experiment on HL-60(TB) leukemia, in the experiment with LOX IMVI melanoma, in the experiment with OVCAR-3 ovarian and in the experiment on OVCAR-8 ovarian was over 100 µM in each case. Besides, the TGI in the experiment on SF-268 CNS, in the experiment on SF-295 CNS and in the experiment with SF-539 CNS was over 100 µM each time.

As for `CCCCCCCCCCCCNC(=S)OCCCC`, the TGI is over 100 µM with CAKI-1 renal; over 100 µM in the experiment on HCT-15 colon; 40.4 µM in the experiment on HL-60(TB) leukemia; 35.8 µM in the experiment on LOX IMVI melanoma; over 100 µM in the experiment with OVCAR-8 ovarian; over 100 µM in the experiment on SF-268 CNS. Besides, the TGI in the experiment on SF-295 CNS and in the experiment on SF-539 CNS was over 100 µM each time.

For `O=C1c2ccccc2C(=O)N1CCN(CCN1C(=O)c2ccccc2C1=O)Cc1ccccc1`, the TGI in the experiment with CAKI-1 renal, with COLO 205 colon, in the experiment on HCT-15 colon, in the experiment with HL-60(TB) leukemia, with LOX IMVI melanoma and with OVCAR-3 ovarian was over 100 µM in each case. Besides, the TGI in the experiment with OVCAR-8 ovarian, in the experiment on SF-268 CNS and in the experiment with SF-295 CNS was over 100 µM in each case.

For the compound `CC(C)(C)c1ccc(OCCCCCCCN2CCNCC2)cc1`, the GI50 in the experiment on CAKI-1 renal is 1.46 µM; with COLO 205 colon it was 1.49 µM; in the experiment on HCT-15 colon, 1.64 µM; in the experiment with HL-60(TB) leukemia, 1.45 µM; in the experiment with LOX IMVI melanoma it was 1.52 µM; with OVCAR-3 ovarian it was 1.63 µM. Moreover, the GI50 with SF-268 CNS was 2.36 µM; in the experiment with SF-295 CNS, 1.84 µM. Besides, the TGI with CAKI-1 renal worked out at 2.81 µM; in the experiment with COLO 205 colon, 3.24 µM; with HCT-15 colon, 3.38 µM; in the experiment on HL-60(TB) leukemia it was 3.3 µM; in the experiment with LOX IMVI melanoma, 3.06 µM; in the experiment with OVCAR-3 ovarian, 3.12 µM. In addition, the results for the TGI in the experiment with SF-268 CNS and in the experiment with SF-295 CNS were 6.65 µM and 3.78 µM, respectively.

Turning to `NC(=O)c1c(NC(=O)c2ccc(C(F)(F)F)cc2Cl)sc2c1CCC(=O)C2`, the GI50 in the experiment with CAKI-1 renal was 0.244 µM; in the experiment on COLO 205 colon it was 0.382 µM; in the experiment on HL-60(TB) leukemia it was 0.273 µM; in the experiment on LOX IMVI melanoma it was 0.383 µM; in the experiment on OVCAR-3 ovarian it was 0.369 µM; in the experiment on OVCAR-8 ovarian, 0.456 µM. Moreover, the results for the GI50 with SF-268 CNS, in the experiment with SF-295 CNS and in the experiment with SF-539 CNS were 0.456 µM, 1.05 µM and 0.28 µM, respectively. Moreover, the TGI was determined as 0.881 µM in the experiment on CAKI-1 renal; 1.49 µM in the experiment with COLO 205 colon; 1.09 µM in the experiment on HL-60(TB) leukemia; 1.83 µM with LOX IMVI melanoma; 1.33 µM with OVCAR-3 ovarian; 12.2 µM in the experiment on OVCAR-8 ovarian. The TGI in the experiment on SF-268 CNS came to 15.7 µM; with SF-295 CNS, 4.5 µM; with SF-539 CNS it was 1.04 µM.

In the case of `Cc1ccccc1-c1cc(=O)c2cc(C)c(C)c(C(=O)O)c2o1`, the TGI in the experiment with CAKI-1 renal, with COLO 205 colon, in the experiment with HCT-15 colon, in the experiment with HL-60(TB) leukemia, in the experiment on LOX IMVI melanoma and in the experiment on OVCAR-3 ovarian was over 100 µM in each case. In addition, the TGI in the experiment with OVCAR-8 ovarian, in the experiment with SF-295 CNS and in the experiment with SF-539 CNS was over 100 µM throughout.

Consider `Nc1ncnc2c1ncn2C1(CO)OC(CO)C(O)C1O` (centres undefined), for which the TGI in the experiment on CAKI-1 renal, with COLO 205 colon, with HCT-15 colon, with HL-60(TB) leukemia, in the experiment on LOX IMVI melanoma and in the experiment on SF-268 CNS was over 100 µM throughout. This compound also came in with a TGI with SF-295 CNS of over 100 µM.

On to `CC1(C)CCOC(Sc2ccccc2)C1` (centres undefined), for which the TGI is over 100 µM in the experiment with CAKI-1 renal; over 100 µM in the experiment on COLO 205 colon; over 100 µM in the experiment with HCT-15 colon; 34.4 µM in the experiment on HL-60(TB) leukemia; over 100 µM in the experiment on LOX IMVI melanoma; over 100 µM with OVCAR-3 ovarian. Besides, the TGI in the experiment on OVCAR-8 ovarian, with SF-268 CNS and with SF-295 CNS was over 100 µM each time.
